Data: PubChem BioAssay AID1845197 (Molecular Pharmacology Branch, DTP, NCI, 2023)
Where “and” joins values, the source holds several entries; their conditions need not be identical. Identical values can stand only once.

System: 349418-098-R tumor spheroid viability
Experiment: Anticancer human tumor 349418-098-R patient-derived lung adenocarcinoma cell line growth inhibition
Settings: spheroids with HUVEC and MSC; for viability, T/C: stronger effect = lower value
Description: Multicellular complex tumor spheroid response to DNA repair inhibitors in combination with DNA-damaging drugs
This study explores the anticancer activities of DNA-damaging drugs and inhibitors of DNA damage repair, both as single agents and in combinations. Complex tumor spheroids comprised of malignant cells, endothelial cells and mesenchymal stem cells served as an in vitro model for human solid tumors. This model system incorporates physiologically relevant features and patient-derived or established malignant cell lines with clinically relevant genetic alterations from many tumor types. Twenty-six patient-derived or established malignant cell lines were evaluated representing sarcoma, melanoma, small cell lung cancer (SCLC), non-small cell lung cancer (NSCLC), as well as bladder, ovarian and pancreatic cancers. The concentration ranges selected for each drug and investigational agent were based upon clinically achievable concentrations if the clinical Cmax of the agent was known.
Compounds. The drugs and compounds olaparib (NSC753686), talazoparib (NSC767125), berzosertib (NSC777718), elimusertib (NSC800525), nedisertib (NSC802822), VX-984 (NSC792969), AZD-1390 (NSC803789), temozolomide (NSC362856), topotecan (NSC609699), trabectedin (NSC813783), staurosporine (NSC755774), and gemcitabine (NSC613327) were obtained from the National Cancer Institute (NCI) Developmental Therapeutics Program Chemical Repository. The FDA-approved anticancer drug set is available from the Developmental Therapeutics Program at https://dtp.cancer.gov/organization/dscb/obtaining/available_plates.htm. […] The stock solutions were prepared in dimethyl sulfoxide (DMSO, Sigma-Aldrich, St. Louis, MO, cat. D2650) at 400-fold the tested concentration and stored at -70 degrees C. Prior to their use, the stock solutions were diluted in fresh medium and the final DMSO concentration in the assay was 0.25% (v/v). All drugs and investigational agents were tested over a range starting from a high concentration at or near the clinical Cmax and decreasing in half-log increments. If the clinical Cmax for an agent had not been determined, the highest concentration tested was 10 microM.
Cell Lines. The patient-derived cancer cell (PDC) lines: 156681-154-R-J1-PDC, 283228-195-R-J1-PDC, 287954-098-R-J1-PDC, 292921-168-R-J2-PDC, 349418-098-R-PDC, 425362-245-T-J1-PDC, 556581-035-R-J1-PDC, and BL0293-F563-PDC were received from the NCI Patient-Derived Models Repository (PDMR, https://pdmr.cancer.gov). The established cell lines HS-SY-2 (RRID:CVCL_8719), MPNST, and SYO-1 (RRID:CVCL_7146) were obtained from the Sloan Kettering Institute. The alveolar soft parts sarcoma cell line ASPS-1 (RRID:CVCL_S738) was established at the NCI and grown from internal seed stocks. The following established cell lines were purchased from the American Type Culture Collection (ATCC, Manassas, VA): G-401 (ATCC, cat. CRL-1441, RRID:CVCL_0270), SW982 (ATCC, cat. HTB-93, RRID:CVCL_1734), VA-ES-BJ (ATCC, cat. CRL-2138, RRID:CVCL_1785), NCI-H719 (ATCC, cat. CRL-5837, RRID:CVCL_1582), NCI-H196 (ATCC, cat. CRL-5823, RRID:CVCL_1509), NCI-H841 (ATCC, cat. CRL-5845, RRID:CVCL_1595), NCI-H1618 (ATCC, cat. CRL-5879, RRID:CVCL_1480), NCI-H1876 (ATCC, cat. CRL-5902, RRID:CVCL_1503), DMS 114 (ATCC, cat. CRL-2066; RRID:CVCL_1174), NCI-H211 (ATCC, cat. CRL-5824; RRID:CVCL_1529), and SW 1271 (ATCC, cat. CRL-2177, RRID:CVCL_1716). The small cell lung cancer cell line COR-L88 was purchased from Sigma-Aldrich (cat. 92031917-1VL, RRID:CVCL_1141). The non-small cell lung cancer cell lines NCI-H226 (RRID:CVCL_1544) and NCI-H322M (RRID:CVCL_1557) were established at the NCI and grown from internal seed stocks. Pooled donor human umbilical vein endothelial cells (HUVEC, Lonza, cat. CC-2519) and human mesenchymal stem cells (hMSC, Lonza, cat. PT-2501) were purchased from Lonza (Walkersville, MD).
Cell Culture. All cells were maintained in an incubator at 37 degrees C and 5% CO2 with 95% humidity. […]
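Also: spheroids exposed to compound for 7 days before measurement.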
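For viability, T/C in this document: percent of vehicle control viability with 100% = DMSO-treated spheroids.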

SMILES: Cc1cc(C)c(CNC(=O)c2cc(-c3ccc(CN4CCOCC4)cc3)cc3c2cnn3C2CCCC2)c(=O)[nH]1 + CC[C@@]1(O)C(=O)OCc2c1cc1n(c2=O)Cc2cc3c(CN(C)C)c(O)ccc3nc2-1
- IC50 (curve of first compound, second compound 0.003 µM): 6590 nM
- IC50 (curve of first compound, second compound 0.00949 µM): 5790 nM
- IC50 (curve of first compound, second compound 0.03 µM): 1030 nM
- IC50 (curve of first compound, second compound 0.0949 µM): < 31.6 nM
- IC50 (curve of first compound, second compound 0.3 µM): < 31.6 nM
- viability, T/C (second compound 0.003 µM, first compound 0.0316 µM): 98.5%
- viability, T/C (second compound 0.003 µM, first compound 0.1 µM): 97.9%
- viability, T/C (second compound 0.003 µM, first compound 0.316 µM): 94.8%
- viability, T/C (second compound 0.003 µM, first compound 1 µM): 92.6%
- viability, T/C (second compound 0.003 µM, first compound 3.16 µM): 89.3%
- viability, T/C (second compound 0.003 µM, first compound 10 µM): 27.5%
- viability, T/C (second compound 0.00949 µM, first compound 0.0316 µM): 93.4%
- viability, T/C (second compound 0.00949 µM, first compound 0.1 µM): 95.7%
- viability, T/C (second compound 0.00949 µM, first compound 0.316 µM): 88.9%
- viability, T/C (second compound 0.00949 µM, first compound 1 µM): 84.4%
- viability, T/C (second compound 0.00949 µM, first compound 3.16 µM): 71.9%
- viability, T/C (second compound 0.00949 µM, first compound 10 µM): 31.4%
- viability, T/C (second compound 0.03 µM, first compound 0.0316 µM): 73.4%
- viability, T/C (second compound 0.03 µM, first compound 0.1 µM): 75.2%
- viability, T/C (second compound 0.03 µM, first compound 0.316 µM): 62.4%
- viability, T/C (second compound 0.03 µM, first compound 1 µM): 52.7%
- viability, T/C (second compound 0.03 µM, first compound 3.16 µM): 26.4%
- viability, T/C (second compound 0.03 µM, first compound 10 µM): 8.63%
- viability, T/C (second compound 0.0949 µM, first compound 0.0316 µM): 19.2%
- viability, T/C (second compound 0.0949 µM, first compound 0.1 µM): 14.8%
- viability, T/C (second compound 0.0949 µM, first compound 0.316 µM): 8.67%
- viability, T/C (second compound 0.0949 µM, first compound 1 µM): 5.66%
- viability, T/C (second compound 0.0949 µM, first compound 3.16 µM): 5.2%
- viability, T/C (second compound 0.0949 µM, first compound 10 µM): 4.15%
- viability, T/C (second compound 0.3 µM, first compound 0.0316 µM): 2.97%
- viability, T/C (second compound 0.3 µM, first compound 0.1 µM): 3.59%
- viability, T/C (second compound 0.3 µM, first compound 0.316 µM): 3.1%
- viability, T/C (second compound 0.3 µM, first compound 1 µM): 3.16%
- viability, T/C (second compound 0.3 µM, first compound 3.16 µM): 3.27%
- viability, T/C (second compound 0.3 µM, first compound 10 µM): 3.11%

SMILES: Cc1sc2c(c1C)C(c1ccc(Cl)cc1)=NC(CC(=O)Nc1ccc(O)cc1)c1nnc(C)n1-2 (configuration not stated)
- viability, T/C (compound 0.00949 µM): 99.1% and 96.4% and 100%
- viability, T/C (compound 0.03 µM): 101% and 90.4% and 111%
- viability, T/C (compound 0.0949 µM): 73% and 49% and 66.3%
- viability, T/C (compound 0.3 µM): 13.4% and 14.2% and 11.2%
- viability, T/C (compound 0.949 µM): 1.66% and 1.1% and 1.46%
- viability, T/C (compound 3 µM): 0.54% and 0.67% and 1%
- IC50 (curve of compound): 148 nM and 96.5 nM and 134 nM
